Measured values taken from ChEMBL document CHEMBL1201862, “PubChem BioAssay data set” (2004).
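The compound was tested at five concentrations on cells cultured in 96-well plates, with a 48-hour exposure period. GI50 marks 50% less growth.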 Active and inactive are the calls of the source. Cut-off read from the data, not from the text of the source: active = GI50 up to about 1.1 µM and inactive = higher.

What was measured:
Test in all cases: NCI-60 cell line screen, 48 h
LXFL 529 = test system: LXFL 529
RXF 631 = test system: RXF 631
BT-549 = test system: BT-549
Hs-578T = test system: Hs-578T
MDA-MB-435 = test system: MDA-MB-435
MDA-N = test system: MDA-N
PC-3 = test system: PC-3
T47D = test system: T47D

Measured: GI50

O=C(c1ccccc1)c1ccc2c(c1)N=C(c1ccc(Cl)c(Cl)c1)CC(c1ccc3ccccc3c1)N2 (configuration not stated)
inactive: LXFL 529 > 100 µM | RXF 631 > 100 µM

COc1nc2ccc(Cl)c(C(O)c3ccccc3)c2nc1OC (configuration not stated)
inactive: BT-549 30.9 µM | Hs-578T 14.9 µM | MDA-MB-435 12.5 µM | MDA-N 11.5 µM | PC-3 26.5 µM | T47D 19.8 µM

S=C1NN=C2C(=C3CCCC4C5CCCCC5N2C34)N1 (configuration not stated)
inactive: BT-549 > 100 µM | Hs-578T > 100 µM | T47D 24.8 µM

c1ccc(Sc2nc(Sc3ccccc3)nc(Sc3ccccc3)n2)cc1
inactive: BT-549 > 100 µM | Hs-578T 13.3 µM | MDA-MB-435 52.1 µM | PC-3 7.11 µM | T47D 22.3 µM

CCC12CCC[C@@]13C=C[C@H](O3)C(C)(C)C2=O (some centres not stated)
inactive: LXFL 529 > 100 µM | RXF 631 > 100 µM

COc1ccc(-c2oc3cc(O)cc(O)c3c(=O)c2OC)cc1 [ERMANIN]
inactive: MDA-MB-435 17.8 µM | MDA-N 25.4 µM | PC-3 31 µM | T47D 31 µM
